Laboratory results published in patent US9856239B1, “Carboxylic acid compound, method for preparation thereof, and use thereof” (INVENTISBIO SHANGHAI LTD., priority 2014, dated 2018).
pIC50: −log10 of the molar value.

Target: human URAT1 (Homo sapiens (Human), UniProt Q96S37)
Experiment: Inhibition of 14C-uric acid absorption in URAT1 cell model (HEK-293T cells transfected with human URAT1)
Assay type: cell-based
Conditions: HEK-293T cells transfected with human URAT1, 14C-uric acid uptake, 5 min, 37 degrees; read-out: URAT1 IC50 Activity level
Method: After 5 min, the buffer was removed from cell wells, added with 100 microliter of ice-cold and no chloride ions-containing HBSS buffer to gently rinse cells within wells so as to stop them from absorbing ^14C-uric acid, the rinsing was repeated 3 times in the same manner. 150 microliter of cell lysate (100 mM of NaOH) was added in each well. Cell plate was placed on a vibrating plate and vibrated for 10 min at a speed of 600 rpm such that the cells were completely lysed. The cell plate was put in a centrifuge and spun for 5 min at a speed of 1000 rpm, then 45 microliter of supernatant was sucked out from each well and transferred to 96-well plate (Isoplate-96 Microplate from PerkinElmer). In the new 96-well plate, 150 microliter of Ultima Gold XR scintillation solution was added in each well. The 96-well plate was vibrated for 10 min at a speed of 600 rpm on a vibrating plate. Finally, the 96-well plate was put in a MicroBeta Trilux Counter from PerkinElmer and was read, then IC50 values were calculated, and the results are shown in Table 1 below. Wherein

Sequence of human URAT1 (Q96S37 whole entry): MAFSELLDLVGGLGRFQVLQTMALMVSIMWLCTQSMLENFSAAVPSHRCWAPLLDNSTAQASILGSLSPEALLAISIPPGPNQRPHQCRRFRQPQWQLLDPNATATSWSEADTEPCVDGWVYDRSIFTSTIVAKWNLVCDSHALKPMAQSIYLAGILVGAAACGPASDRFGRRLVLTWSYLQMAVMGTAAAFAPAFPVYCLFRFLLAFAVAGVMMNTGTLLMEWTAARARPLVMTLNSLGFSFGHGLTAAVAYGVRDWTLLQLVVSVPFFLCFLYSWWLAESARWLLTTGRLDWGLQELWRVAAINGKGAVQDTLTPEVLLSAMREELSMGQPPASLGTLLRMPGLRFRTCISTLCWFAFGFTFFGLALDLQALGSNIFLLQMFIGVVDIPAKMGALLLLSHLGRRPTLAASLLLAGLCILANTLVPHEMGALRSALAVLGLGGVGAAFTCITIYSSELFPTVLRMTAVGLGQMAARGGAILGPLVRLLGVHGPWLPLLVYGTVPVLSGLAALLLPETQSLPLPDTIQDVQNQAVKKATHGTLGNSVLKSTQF

SMILES	pIC50
N#Cc1ccc(-c2cnccc2Sc2ccc(C(=O)O)cc2)c2ccccc12 [Compound 15]	6.00 to 7.00
N#Cc1ccc(-c2cnccc2SCCC(=O)O)c2ccccc12 [Compound 2]	6.00 to 7.00
CC(C)(Sc1ccncc1-c1ccc(C#N)cn1)C(=O)O [Compound 37, 2-((5-cyano-[2,3′-bipyridine]-4′-yl)thio)-2-methylpropanoic acid]	< 6.00
N#Cc1ccc(-c2cnccc2NCCCC(=O)O)c2ccccc12 [Compound 27]	< 6.00
N#Cc1ccc(-c2cnccc2SCC2(CC(=O)O)CC2)nc1 [Compound 38, 2-(1-(((5-cyano-2,3′-bipyridin-4′-yl)thio)methyl)cyclopropyl)acetic acid]	< 6.00
[2H]C([2H])([2H])C(Sc1ccncc1-c1ccc(C#N)c2ccccc12)(C(=O)O)C([2H])([2H])[2H] [Compound 40, di(methyl-d3)-2-((3-(4-cyanonaphthalen-1-yl)pyridin-4-yl)thio)acetic acid]	> 7.00
N#Cc1ccc(-c2cnccc2NCC(=O)O)c2ccccc12 [Compound 24, 2-(3-(1-cyanonaphthalen-4-yl)pyridin-4-ylamino)acetic acid]	< 6.00
CC(C)(Sc1ccncc1-c1ccc(C2(O)COC2)cc1)C(=O)O [Compound 35, 2-((3-(4-(3-hydroxyoxetan-3-yl)phenyl)pyridin-4-yl)thio)-2-methylpropanoic acid]	6.00 to 7.00
N#Cc1ccc(-c2cnccc2CCC(=O)O)c2ccccc12 [Compound 32, 3-(3-(4-cyanonaphthalen-1-yl)pyridin-4-yl) propanoic acid]	< 6.00
[2H]C([2H])([2H])C(C)(Sc1ccncc1-c1ccc(C#N)c2ccccc12)C(=O)O (stereo not drawn) [Compound 41, 2-methyl-d3-2-((3-(4-cyanonaphthalen-1-yl)pyridin-4-yl)thio) propanoic acid]	> 7.00
N#Cc1ccc(-c2cnccc2SCC2(C(=O)O)CCCC2)c2ccccc12 [Compound 16]	> 7.00
N#Cc1ccc(-c2cnccc2SC[C@H]2C[C@@H](C(=O)O)C2)c2ccccc12 [Compound 5]	6.00 to 7.00
N#Cc1ccc(-c2ccccc2SCC2(CC(=O)O)CC2)cc1 [Compound 11, 2-(1-((2-(4-cyanophenyl)phenylthio)methyl)cyclopropyl)acetic acid]	> 7.00
CC(C)(Sc1ccncc1-n1nc(C2CC2)c2ccccc21)C(=O)O [Compound 9]	< 6.00
N#Cc1ccc(-c2cnccc2SC[C@H]2C[C@H](C(=O)O)C2)c2ccccc12 [Compound 6]	< 6.00
N#Cc1ccc(-c2cnccc2Sc2cccc(C(=O)O)c2)c2ccccc12 [Compound 14]	6.00 to 7.00
N#Cc1ccc(-c2cnccc2SCC2(C(=O)O)CCC2)c2ccccc12 [Compound 17, 1-(((3-(4-cyanonaphthalen-1-yl)pyridin-4-yl)thio)methyl)cyclobutanecarboxylic acid]	> 7.00
O=C(O)CC1(CSc2ccncc2-c2ccc(C3(O)CC3)cc2)CC1 [Compound 34, 2-(1-(((3-(4-(1-hydroxycyclopropyl)phenyl)pyridin-4-yl)thio)methyl)cyclopropyl)acetic acid]	6.00 to 7.00
CC(C)(Sc1ccncc1-n1cc(C#N)c2ccccc21)C(=O)O [Compound 8, 2-((3-(3-cyano-1H-indol-1-yl)pyridin-4-yl)thio)-2-methylpropanoic acid]	< 6.00
O=C(O)CC1(CSc2ccncc2-c2ccc(C(=O)O)cn2)CC1 [Compound 39, 4′-(((1-(carboxymethyl)cyclopropyl)methyl)thio)-[2,3′-bipyridine]-5-carboxylic acid]	< 6.00

SMILES	pIC50
CC(C)(Sc1ccncc1-c1ncc(C#N)c2ccccc12)C(=O)O [Compound 10, 2-((3-(4-cyanoisoquinolin-1-yl)pyridin-4-yl)thio)-2-methylpropanoic acid]	< 6.00
Cc1cc(C#N)cnc1-c1cnccc1SC(C)(C)C(=O)O [Compound 19]	< 6.00
N#Cc1ccc(-c2cnccc2OCC2(CC(=O)O)CC2)cc1 [Compound 29, 2-(1-(((3-(4-cyanophenyl)pyridin-4-yl)oxy)methyl)cyclopropyl)acetic acid]	< 6.00
N#Cc1ccc(-c2cnccc2SCCCC(=O)O)c2ccccc12 [Compound 3]	> 7.00
CC(C)(Nc1ccncc1-c1ccc(C#N)c2ccccc12)C(=O)O [Compound 25]	< 6.00
N#Cc1ccc(-c2cnccc2OCC2(CC(=O)O)CC2)c2ccccc12 [Compound 30]	< 6.00
N#Cc1ccc(-c2cnccc2Sc2ccccc2C(=O)O)c2ccccc12 [Compound 13]	6.00 to 7.00
O=C(O)CC1(CSc2ccncc2-c2ccc(CO)cc2)CC1 [Compound 22, 2-(1-((3-(4-(hydroxymethyl)phenyl)pyridin-4-ylthio)methyl)cyclopropyl)acetic acid]	6.00 to 7.00
N#Cc1ccc(-c2cnccc2SCCC(F)(F)C(=O)O)c2ccccc12 [Compound 12]	6.00 to 7.00
N#Cc1ccc(-c2cnccc2S[C@H]2C[C@H](C(=O)O)C2)c2ccccc12 [Compound 7]	6.00 to 7.00
CC(C)(CCC(=O)O)Sc1ccncc1-c1ccc(C#N)c2ccccc12 [Compound 18, 4-((3-(4-cyanonaphthalen-1-yl)pyridin-4-yl)thio)-4-methylpentanoic acid]	> 7.00
CC(C)(Oc1ccncc1-c1ccc(C#N)cc1)C(=O)O [Compound 31, 2-(3-(4-cyanophenyl)pyridin-4-yloxy)-2-methylpropanoic acid]	< 6.00
N#Cc1ccc(-c2cnccc2SCC2(CC(=O)O)CC2)cc1 [Compound 20, 2-(1-(((3-(4-cyanophenyl)pyridin-4-yl)thio)methyl)cyclopropyl)acetic acid]	> 7.00
N#Cc1ccc(-c2cnccc2SCC2(CC(=O)O)CC2)c2ccccc12 [Compound 4, 2-(1-(((3-(4-cyanonaphthalen-1-yl)pyridin-4-yl)thio)methyl)cyclopropyl)acetic acid]	> 7.00
CC(C)(Sc1ccncc1-c1ccc(C2(O)CC2)cc1)C(=O)O [Compound 33, 2-((3-(4-(1-hydroxycyclopropyl)phenyl)pyridin-4-yl)thio)-2-methylpropanoic acid]	6.00 to 7.00
N#Cc1ccc(-c2cnccc2NCCC(=O)O)c2ccccc12 [Compound 26]	< 6.00
N#Cc1ccc(-c2cnccc2SCC2(C(=O)O)CC2)c2ccccc12 [Compound 1, 1-(((3-(4-cyanonaphthalen-1-yl)pyridin-4-yl)thio)methyl)cyclopropanecarboxylic acid]	> 7.00
O=C(O)CC1(CSc2ccncc2-c2ccc(C3(O)COC3)cc2)CC1 [Compound 36, 2-(1-(((3-(4-(3-hydroxyoxetan-3-yl)phenyl)pyridin-4-yl)thio)methyl)cyclopropyl)acetic acid]	< 6.00
N#Cc1ccc(-c2cnccc2NCC(=O)O)cc1 [Compound 28]	< 6.00
